Earlier results as cited in PMC6835763, “Influence of Short Cationic Lipopeptides with Fatty Acids of Different Chain Lengths on Bacterial Biofilms Formed on Polystyrene and Hydrogel Surfaces” (Pharmaceutics, 2019).

Key:
Details in all cases: cited from earlier work
[1] = system: PM biofilm
Description: (§1) They were ineffective against PM, which was difficult to eradicate with peptides (and antibiotics) in previously performed studies. PM can cause infections of the urinary tract, skin, subcutaneous tissue, and wounds. PM is known as a biofilm former, and an evident increase of PM resistance to broad-spectrum fluoroquinolones and cephalosporins has been observed. In the previous study, mature PM b ...

[2] = system: EC biofilm
Description: as §1

[3] = system: PA biofilm
Description: as §1

[4] = system: SA biofilms; parameters: method as in PMID 24779193

Substance | susceptibility of mature PM biofilms [1] | further results
C16-RR-NH2 [Lipopeptide C16-RR-NH2] | resistant | –
citropin 1.1 | resistant | –
neomycin | resistant | activity against EC biofilms [2]: rather weak activity; activity against PA biofilm [3]: weak antibiofilm agents; susceptibility of SA biofilms [4]: resistant
omiganan | resistant | –
pexiganan | resistant | –
polymyxin B | – | concentration eradicating the PM biofilm ([1]; mature PM biofilms): 512 µg/mL
